# Experimental data published in publication PMC5053896 (Journal of the American Chemical Society, 2016).
# Read-outs that look alike come from different tables or passages of the source.
# How the values were obtained:
# M. tuberculosis = M. tuberculosis growth inhibition, microdilution broth method; format: cell-based; conditions: for M. tuberculosis growth inhibition MIC50: microdilution broth method
# MurX = MurX (Mycobacterium tuberculosis, UniProt P9WMW7); assay: biochemical; format: biochemical, M. tuberculosis
# Staphylococcus aureus = Staphylococcus aureus infected mice; cited from earlier work
# [1] = system: Gram-positive and Gram-negative bacteria; conditions: both Gram-positive and Gram-negative bacteria; cited from earlier work
# [2] = target: WecA (polyprenyl phosphate-GlcNAc-1-phosphate transferase) (Mycobacterium tuberculosis, UniProt P9WMW5); format: biochemical, M. tuberculosis; conditions: for IC50: read-out: WecA inhibition IC50
# MraY = conditions: read-out: MraY enzyme inhibitory activity IC50; cited from earlier work
# bacteria = conditions: cited from earlier work
compound,measurement,setting,value
CO[C@H]1[C@@H](O)[C@H](n2ccc(=O)[nH]c2=O)O[C@@H]1[C@@H](O[C@H]1OC(C(=O)N[C@H]2CCCCNC2=O)=C[C@H](O)[C@@H]1O)C(N)=O [Capuramycin],MIC50,"M. tuberculosis; Mycobacterium tuberculosis, read-out: M. tuberculosis growth inhibition MIC50",6.25 µg/mL
same,IC50,MurX,220 nM
CO[C@H]1[C@H](O[C@H]([C@H]2O[C@@H](n3ccc(=O)[nH]c3=O)[C@H](O)[C@@H]2O)[C@H](NCCCNC(=O)[C@@H](NC(=O)[C@@H](NC(=O)N[C@H](C(=O)O)C(C)C)[C@@H]2CCN=C(N)N2)[C@@H](OC(=O)CCCCCCCCCCCCN(O)C(=N)N)C(C)C)C(=O)O)O[C@H](CN)[C@H]1O [Muraymycin A1],ED50,Staphylococcus aureus,1.1 mg/kg
same,bactericidal activity,[1],bactericidal activity
"CO[C@H]1[C@H](O[C@H]([C@H]2O[C@@H](n3ccc(=O)[nH]c3=O)[C@H](O)[C@@H]2O)[C@H](NCCCNC(=O)[C@H](CC(C)C)NC(=O)[C@@H](NC(=O)N[C@H](C(=O)O)C(C)C)[C@@H]2CCN=C(N)N2)C(=O)O)O[C@H](CN)[C@H]1O [Muraymycin D1 (1), Muraymycin D1]",M. tuberculosis growth inhibition MIC50,M. tuberculosis,1.56 µg/mL
same,M. tuberculosis growth inhibition MIC50,M. tuberculosis; listed as 1,1.56 to 6.25 µg/mL
same,IC50,[2],690 nM
COC1C(C(OC2OC(C(=O)NC3CCCCNC3=O)=CC(O)C2O)C(N)=O)OC(n2ccc(=O)[nH]c2=O)C1OC (stereo not shown) [UT-01320],M. tuberculosis growth inhibition MIC50,M. tuberculosis,1.56 µg/mL
same,IC50,[2],60 nM
CC(C)C[C@H](NC(=O)[C@@H](NC(=O)N[C@H](C(=O)O)C(C)C)[C@@H]1CCN=C(N)N1)C(=O)NCCCN[C@H](C(=O)O)[C@H](O[C@@H]1O[C@H](CN)[C@@H](O)[C@H]1O)[C@H]1O[C@@H](n2ccc(=O)[nH]c2=O)[C@H](O)[C@@H]1O [muraymycin D2],IC50,MraY,10 nM
same,antibacterial activity,bacteria,no significant antibacterial activity
Muraymycin D1-amide [Muraymycin D1-amide (2)],M. tuberculosis growth inhibition MIC50,M. tuberculosis,1.56 µg/mL
same,M. tuberculosis growth inhibition MIC50,M. tuberculosis; listed as 2,1.56 to 6.25 µg/mL
Muraymycin D1-diamide [Muraymycin D1-diamide (3)],M. tuberculosis growth inhibition MIC50,M. tuberculosis,6.25 µg/mL
same,M. tuberculosis growth inhibition MIC50,M. tuberculosis; listed as 3,1.56 to 6.25 µg/mL
same,Inhibition of WecA enzyme relative to 1 and 2,[2],~ 10 times
Tunicamycin,M. tuberculosis growth inhibition MIC50,M. tuberculosis,3.13 µg/mL
same,IC50,[2],150 nM
same,IC50,MurX; read-out: MurX inhibition IC50,3380 nM
